# Results: publication PMC4687525, “Drosophila Avoids Parasitoids by Sensing Their Semiochemicals via a Dedicated Olfactory Circuit” (PLoS Biology, 2015)
# Biological target: T1, Or85f (Drosophila melanogaster, UniProt Q9VHE6)
# T1 construct: full-length receptor, UAS-Or85f transgene expressed in mutant ab3A neuron lacking Or22a (delta-halo empty neuron); endogenous Orco; with Odorant receptor coreceptor
# T1 sequence (Q9VHE6 1-392): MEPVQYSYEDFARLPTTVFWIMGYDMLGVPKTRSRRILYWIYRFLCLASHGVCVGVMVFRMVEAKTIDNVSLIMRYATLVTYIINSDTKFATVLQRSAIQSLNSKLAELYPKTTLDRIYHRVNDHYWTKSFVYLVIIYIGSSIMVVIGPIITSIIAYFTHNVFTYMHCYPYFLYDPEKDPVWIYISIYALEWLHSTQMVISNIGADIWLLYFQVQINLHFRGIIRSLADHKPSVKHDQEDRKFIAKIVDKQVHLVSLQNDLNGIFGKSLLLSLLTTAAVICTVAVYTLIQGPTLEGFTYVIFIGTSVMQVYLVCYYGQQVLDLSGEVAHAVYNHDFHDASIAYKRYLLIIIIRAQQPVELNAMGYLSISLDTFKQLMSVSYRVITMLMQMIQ
# T1 sequence (Q9VNB5 1-486 partner): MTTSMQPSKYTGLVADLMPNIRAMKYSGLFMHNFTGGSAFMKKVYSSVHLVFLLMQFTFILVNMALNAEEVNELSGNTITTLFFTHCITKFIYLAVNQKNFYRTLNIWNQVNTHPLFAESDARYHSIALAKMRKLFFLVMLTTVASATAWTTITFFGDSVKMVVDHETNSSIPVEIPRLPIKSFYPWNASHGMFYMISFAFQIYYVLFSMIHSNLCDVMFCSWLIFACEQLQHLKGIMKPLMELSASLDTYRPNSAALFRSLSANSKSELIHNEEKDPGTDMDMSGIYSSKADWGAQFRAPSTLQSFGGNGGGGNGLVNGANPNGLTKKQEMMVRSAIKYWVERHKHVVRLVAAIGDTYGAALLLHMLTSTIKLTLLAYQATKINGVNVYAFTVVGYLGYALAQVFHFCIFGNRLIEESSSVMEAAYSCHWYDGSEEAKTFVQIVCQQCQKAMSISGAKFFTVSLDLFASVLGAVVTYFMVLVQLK
# Assay: GC-coupled single sensillum recording, empty neuron (ab3A)
# Assay type: cell-based
# Details: agonist
# [1] = reference sample described as racemic
smiles,measurement,setting,value
CC1=CO[C@H](O)[C@H]2[C@H](C)CC[C@@H]12 (racemic) [1S4aR7R7aS-nepetalactol],"GC-coupled single sensillum recording, empty neuron (ab3A)",[1],"1S4aR7R7aS, 1R4aS7S7aS-nepetalactol and their enantiomers) activated OSNs expressing Or85f"
CC1=CO[C@@H](O)[C@@H]2[C@@H]1CC[C@@H]2C (racemic) [1R4aS7S7aS-nepetalactol],"GC-coupled single sensillum recording, empty neuron (ab3A)",[1],"1S4aR7R7aS, 1R4aS7S7aS-nepetalactol and their enantiomers) activated OSNs expressing Or85f"
Cc1cncc2c1CC[C@H]2C [(R)-actinidine],"GC-coupled single sensillum recording, empty neuron (ab3A)",,"When we tested OSNs misexpressing Or85f, they became activated by (R)-actinidine and nepetalactol"
